Article PMC6582051, “Identification of a natural ligand of the hazel allergen Cor a 1” (Scientific Reports, 2019)

Biological target: T1, Cor a 1.0401 (Corylus avellana, UniProt Q9SWR4)
T1 construct: gene CORA1.0401; tagless full-length recombinant, 160 aa, E. coli (pET11a, codon-optimised synthetic gene), 15N or 13C/15N labelled
T1 sequence (Q9SWR4 2-161 limits assumed): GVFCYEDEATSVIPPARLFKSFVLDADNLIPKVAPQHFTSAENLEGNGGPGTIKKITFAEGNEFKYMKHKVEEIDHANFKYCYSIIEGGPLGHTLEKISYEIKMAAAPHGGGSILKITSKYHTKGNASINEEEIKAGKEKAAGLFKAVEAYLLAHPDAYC
Experiment: 1H, […] HSQC NMR titration
Format: binding
Conditions: 298 K, 60 uM protein, up to equimolar ligand, 2.2% DMSO; hydrophobic pocket

O=c1c(O)c(-c2ccc(O)c(O)c2)oc2cc(O)cc(O)c12 [quercetin]
1H,15N HSQC NMR titration: amino acids that were strongest affected by quercetin binding are highlighted in red
